In assay [1] the target is DNA topoisomerase 2-alpha (Homo sapiens) (UniProt P11388). As to the kind of experiment: Inhibition of human DNA topoisomerase 2alpha assessed as relaxation of supercoiled pBR322 DNA at 100 uM after 30 mins using ethidium bromide staining by agarose gel electrophoresis.
For assay [2] the target is unchanged. As to the kind of experiment: Inhibition of human DNA topoisomerase 2alpha assessed as relaxation of supercoiled pBR322 DNA at 20 uM after 30 mins using ethidium bromide staining by agarose gel electrophoresis.
In assay [3] the target is T1, DNA topoisomerase 1 (Homo sapiens) (UniProt P11387).
T1 sequence (whole entry): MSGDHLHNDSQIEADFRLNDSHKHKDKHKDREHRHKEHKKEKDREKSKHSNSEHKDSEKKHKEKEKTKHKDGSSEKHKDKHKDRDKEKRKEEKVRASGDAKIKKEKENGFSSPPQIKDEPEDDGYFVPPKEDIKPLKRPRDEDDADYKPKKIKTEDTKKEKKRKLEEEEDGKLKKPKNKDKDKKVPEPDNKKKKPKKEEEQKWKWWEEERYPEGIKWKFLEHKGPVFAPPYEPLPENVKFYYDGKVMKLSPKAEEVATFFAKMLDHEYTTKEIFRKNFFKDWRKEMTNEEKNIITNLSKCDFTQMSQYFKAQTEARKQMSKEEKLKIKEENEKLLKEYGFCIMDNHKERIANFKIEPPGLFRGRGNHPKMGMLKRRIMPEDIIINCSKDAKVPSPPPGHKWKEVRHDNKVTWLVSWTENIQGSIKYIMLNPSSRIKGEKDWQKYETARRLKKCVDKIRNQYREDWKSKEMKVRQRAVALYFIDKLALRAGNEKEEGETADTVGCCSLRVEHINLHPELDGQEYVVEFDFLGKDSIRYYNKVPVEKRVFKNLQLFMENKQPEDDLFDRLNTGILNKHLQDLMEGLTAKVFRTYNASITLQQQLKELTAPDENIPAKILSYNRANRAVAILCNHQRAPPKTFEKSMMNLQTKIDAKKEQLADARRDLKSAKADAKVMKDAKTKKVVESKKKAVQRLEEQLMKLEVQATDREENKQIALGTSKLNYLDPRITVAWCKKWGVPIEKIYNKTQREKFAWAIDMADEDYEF
As to the kind of experiment: Inhibition of human recombinant DNA topoisomerase 1 assessed as relaxation of supercoiled pBR322 DNA at 100 uM after 30 mins using ethidium bromide staining by agarose gel electrophoresis.

The subject of the next assay is DU-145. The assay is described as follows: Cytotoxicity against human DU145 cells after 2 days by CCK8 assay. The format is functional, cell-based. The note with it: DU-145, 48 h. Background: Tetrazolium dyes change colour on reduction, which living cells bring about.
A further assay concerns HCT-15. As to the kind of experiment: Cytotoxicity against human HCT15 cells after 2 days by CCK8 assay. In kind it is functional, cell-based. The note with it: HCT-15, 48 h.
A further assay deals with T47D. As to the kind of experiment: Cytotoxicity against human T47D cells after 2 days by CCK8 assay. In kind it is functional, cell-based. The note with it: 48 h.
The nature of assay [4]: Cytotoxicity against human MCF10A cells after 2 days by CCK8 assay. The format is cell-based. The note with it: MCF-10A, 48 h.
Assay [5] has as its target T1, DNA topoisomerase 1 (Homo sapiens). The assay is described as follows: Inhibition of human recombinant DNA topoisomerase 1 assessed as relaxation of supercoiled pBR322 DNA at 20 uM after 30 mins using ethidium bromide staining by agarose gel electrophoresis.

Inhibition and IC50 data for 25 molecules are collected here from ChEMBL document CHEMBL3611987, “Design and synthesis of conformationally constrained hydroxylated 4-phenyl-2-aryl chromenopyridines as novel and selective topoisomerase II-targeted antiproliferative agents” (Bioorg Med Chem, 2015).

The structures appear in SMILES notation.

DNA topoisomerase 2-alpha (Homo sapiens), sequence (P11388 whole entry): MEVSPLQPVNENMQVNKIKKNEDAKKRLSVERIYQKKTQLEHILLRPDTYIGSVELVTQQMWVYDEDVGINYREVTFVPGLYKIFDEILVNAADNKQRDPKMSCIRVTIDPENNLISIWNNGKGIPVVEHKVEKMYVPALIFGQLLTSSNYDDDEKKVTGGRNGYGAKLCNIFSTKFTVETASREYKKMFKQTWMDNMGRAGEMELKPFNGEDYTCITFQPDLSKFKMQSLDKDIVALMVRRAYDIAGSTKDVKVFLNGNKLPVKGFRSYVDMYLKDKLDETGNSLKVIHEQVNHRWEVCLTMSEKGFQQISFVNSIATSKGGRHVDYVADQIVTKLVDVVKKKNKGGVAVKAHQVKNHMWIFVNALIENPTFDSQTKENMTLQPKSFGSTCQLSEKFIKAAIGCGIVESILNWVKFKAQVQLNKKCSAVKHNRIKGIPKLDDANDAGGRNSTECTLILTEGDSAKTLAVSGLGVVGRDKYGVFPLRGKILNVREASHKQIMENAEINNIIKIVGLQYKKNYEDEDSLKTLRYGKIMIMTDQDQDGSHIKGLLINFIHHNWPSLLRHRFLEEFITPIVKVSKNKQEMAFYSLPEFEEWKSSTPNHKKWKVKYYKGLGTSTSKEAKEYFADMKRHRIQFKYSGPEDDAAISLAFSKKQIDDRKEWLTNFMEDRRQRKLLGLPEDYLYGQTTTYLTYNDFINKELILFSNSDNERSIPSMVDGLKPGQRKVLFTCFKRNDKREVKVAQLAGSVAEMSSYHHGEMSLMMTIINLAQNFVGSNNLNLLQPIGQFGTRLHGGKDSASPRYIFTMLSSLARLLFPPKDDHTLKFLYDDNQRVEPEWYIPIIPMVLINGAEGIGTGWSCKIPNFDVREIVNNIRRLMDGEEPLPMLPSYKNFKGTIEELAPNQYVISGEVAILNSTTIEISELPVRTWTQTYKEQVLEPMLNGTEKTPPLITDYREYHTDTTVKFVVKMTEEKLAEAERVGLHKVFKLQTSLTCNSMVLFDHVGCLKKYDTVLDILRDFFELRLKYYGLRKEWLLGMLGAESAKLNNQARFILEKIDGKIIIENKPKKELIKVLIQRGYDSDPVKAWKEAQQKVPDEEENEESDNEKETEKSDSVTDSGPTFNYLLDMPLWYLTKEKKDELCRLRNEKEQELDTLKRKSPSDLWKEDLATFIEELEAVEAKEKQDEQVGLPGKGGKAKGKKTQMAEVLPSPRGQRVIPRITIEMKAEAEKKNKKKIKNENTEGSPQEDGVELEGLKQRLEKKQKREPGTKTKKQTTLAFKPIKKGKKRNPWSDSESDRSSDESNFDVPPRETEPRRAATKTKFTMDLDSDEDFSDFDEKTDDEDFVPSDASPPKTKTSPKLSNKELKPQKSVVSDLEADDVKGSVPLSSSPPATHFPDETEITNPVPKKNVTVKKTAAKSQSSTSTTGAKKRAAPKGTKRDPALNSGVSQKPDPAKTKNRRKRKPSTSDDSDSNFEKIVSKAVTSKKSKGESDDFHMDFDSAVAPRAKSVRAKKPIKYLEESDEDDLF

Turning to `Oc1ccc(-c2cc(-c3cccs3)nc3c2COc2ccccc2-3)cc1`, the inhibition (usually the share of the control response that was lost under treatment) in assay [1] was found to be 91.7%; in assay [2], 25.8%; in assay [3], 1%. Besides, the IC50 (in general, the concentration that gives 50% inhibition) was found to be 830 nM in the assay on DU-145, 1520 nM in the assay on HCT-15, 1210 nM in the assay on T47D and 6240 nM in assay [4].

Take `Oc1ccc(-c2cc(-c3ccsc3)nc3c2COc2ccccc2-3)cc1`: the inhibition in assay [1] turned out to be 100%; in assay [2], 18.1%; in assay [3] it was 0%. The IC50 in the assay on DU-145 came out at 390 nM; with HCT-15, 1660 nM; in the assay with T47D it was 1900 nM; in assay [4], 5830 nM.

Turning to `Oc1ccccc1-c1cc(-c2ccccc2)nc2c1COc1ccccc1-2`, the inhibition was 84.7% in assay [1], 10% in assay [2] and 3.6% in assay [3]. The IC50 in the assay with DU-145 stood at 5010 nM; with HCT-15, 3470 nM; with T47D it was 3820 nM; in assay [4], 8200 nM.

On to `Oc1ccccc1-c1cc(-c2ccco2)nc2c1COc1ccccc1-2`, for which the inhibition came out at 91.5% in assay [1], 17% in assay [2] and 3.9% in assay [3]. Moreover, the IC50 is 2450 nM in the assay on DU-145, 2010 nM in the assay on HCT-15, 2980 nM in the assay on T47D and 7980 nM in assay [4].

Take `Oc1cccc(-c2cc(-c3ccco3)nc3c2COc2ccccc2-3)c1`: the inhibition in assay [1] amounted to 84.9%; in assay [2], 0%; in assay [3], 1.4%. The IC50 in the assay on DU-145 was 3100 nM; with HCT-15 it was 4770 nM; in the assay with T47D, 3590 nM; in assay [4] it was 8800 nM.

For the molecule `Oc1ccc(-c2cc(-c3ccc(O)cc3)c3c(n2)-c2ccccc2OC3)cc1`, the results for the inhibition in assay [1], in assay [2] and in assay [3] were 97.2%, 10.3% and 2.8%, respectively. The IC50 in the assay with DU-145 amounted to 3800 nM; in the assay with HCT-15, 690 nM; with T47D, 780 nM; in assay [4] it was 1900 nM.

For the molecule `Oc1ccc(-c2cc(-c3ccccc3O)nc3c2COc2ccccc2-3)cc1`, the inhibition is 89.3% in assay [1], 63.2% in assay [2] and 3.8% in assay [3]. Further, the IC50 with DU-145 was over 50000 nM; with HCT-15, 1560 nM; with T47D it was 1290 nM; in assay [4] it was 24200 nM.

`Oc1cccc(-c2cc(-c3ccccc3)nc3c2COc2ccccc2-3)c1`: the inhibition is 94.8% in assay [1], 10.9% in assay [2] and 1.5% in assay [3]. Also, the IC50 is 2330 nM in the assay on DU-145, 3030 nM in the assay with HCT-15, 760 nM in the assay with T47D and 8520 nM in assay [4].

As for `Oc1cccc(-c2cc(-c3ccsc3)nc3c2COc2ccccc2-3)c1`, the inhibition in assay [1] was determined as 100%; in assay [2], 31.7%; in assay [3], 68.6%; in assay [5], 0%. Further, the IC50 is 3000 nM with DU-145, 1220 nM with HCT-15, 1180 nM in the assay with T47D and 7260 nM in assay [4].

As for `CC[C@@]1(O)C(=O)OCc2c1cc1n(c2=O)Cc2cc3ccccc3nc2-1` [CAMPTOTHECIN], the 50% inhibitory concentration (IC50) in the assay on HCT-15 stood at 300 nM; with T47D, 80 nM; in assay [4], 970 nM.

Take `Oc1cccc(-c2cc(-c3ccccc3O)nc3c2COc2ccccc2-3)c1`: the inhibition was found to be 88.6% in assay [1], 33.7% in assay [2] and 2.4% in assay [3]. In addition, the IC50 is 6370 nM with DU-145, 2110 nM with HCT-15, 3420 nM in the assay with T47D and 4610 nM in assay [4].

As to `Oc1ccc(-c2cc(-c3cccc(O)c3)nc3c2COc2ccccc2-3)cc1`, the inhibition amounted to 93.5% in assay [1], 7.6% in assay [2] and 1.8% in assay [3]. Besides, the IC50 is 810 nM with DU-145, 550 nM in the assay with HCT-15, 670 nM with T47D and 2420 nM in assay [4].

Regarding `COc1cc([C@@H]2c3cc4c(cc3[C@@H](O[C@@H]3O[C@@H]5CO[C@@H](C)O[C@H]5[C@H](O)[C@H]3O)[C@H]3COC(=O)[C@H]23)OCO4)cc(OC)c1O` [ETOPOSIDE], the 50% inhibitory concentration (IC50) turned out to be 13100 nM in the assay on DU-145, 2600 nM with HCT-15, 940 nM in the assay on T47D and 10100 nM in assay [4].

With `Oc1ccc(-c2cc(-c3cccc(O)c3)c3c(n2)-c2ccccc2OC3)cc1`, the inhibition in assay [1] was found to be 93%; in assay [2], 1.8%; in assay [3] it was 5.3%. Further, the IC50 in the assay on DU-145 is 2060 nM; with HCT-15, 2980 nM; in the assay on T47D, 2370 nM; in assay [4] it was 4640 nM.

For `Oc1cccc(-c2cc(-c3cccc(O)c3)c3c(n2)-c2ccccc2OC3)c1`, the inhibition in assay [1] stood at 93.3%; in assay [2], 1.9%; in assay [3] it was 4.3%. For the same molecule, the IC50 with DU-145 came out at 1580 nM; in the assay with HCT-15, 4110 nM; in the assay with T47D it was 1770 nM; in assay [4], 5810 nM.

With `Oc1ccc(-c2cc(-c3ccccc3O)c3c(n2)-c2ccccc2OC3)cc1`, the inhibition in assay [1] turned out to be 93.6%; in assay [2], 8%; in assay [3] it was 7.6%. For the same molecule, the IC50 with DU-145 was 1950 nM; in the assay on HCT-15, 1660 nM; with T47D it was 2090 nM; in assay [4], 2740 nM.

Turning to `Oc1ccccc1-c1cc(-c2ccsc2)nc2c1COc1ccccc1-2`, the inhibition in assay [1] stood at 100%; in assay [2], 29.7%; in assay [3], 3.3%. Besides, the IC50 is 740 nM with DU-145, 3170 nM in the assay on HCT-15, 2740 nM in the assay with T47D and 7170 nM in assay [4].

For the molecule `Oc1ccc(-c2cc(-c3ccco3)nc3c2COc2ccccc2-3)cc1`, the inhibition in assay [1] was 95.6%; in assay [2], 6.8%; in assay [3], 0.5%. Also, the IC50 in the assay on DU-145 was 4450 nM; in the assay on HCT-15, 1230 nM; in the assay with T47D it was 850 nM; in assay [4] it was 6880 nM.

With `Oc1ccccc1-c1cc(-c2ccccc2O)c2c(n1)-c1ccccc1OC2`, the inhibition in assay [1] is 78%; in assay [2], 47.9%; in assay [3] it was 2.4%. In addition, the IC50 in the assay with DU-145 is 4690 nM; with HCT-15, 3580 nM; with T47D, 2760 nM; in assay [4] it was 8760 nM.

Consider `Oc1cccc(-c2cc(-c3cccs3)nc3c2COc2ccccc2-3)c1`, for which the inhibition in assay [1] is 99%; in assay [2], 41.2%; in assay [3], 6.6%. The IC50 in the assay on DU-145 was determined as 860 nM; with HCT-15 it was 3170 nM; in the assay on T47D, 2240 nM; in assay [4], 6440 nM.

Turning to `Oc1cccc(-c2cc(-c3ccccc3O)c3c(n2)-c2ccccc2OC3)c1`, the inhibition in assay [1] came out at 92.1%; in assay [2], 4.8%; in assay [3], 3.3%. The IC50 was found to be 630 nM in the assay with DU-145, 1010 nM in the assay on HCT-15, 2170 nM in the assay with T47D and 3420 nM in assay [4].

With `COc1cccc2c1C(=O)c1c(O)c3c(c(O)c1C2=O)C[C@@](O)(C(=O)CO)C[C@@H]3O[C@H]1C[C@H](N)[C@H](O)[C@H](C)O1` [DOXORUBICIN], the IC50 was determined as 950 nM in the assay with DU-145, 1880 nM in the assay on T47D and 1230 nM in assay [4].

Turning to `Oc1ccccc1-c1cc(-c2cccs2)nc2c1COc1ccccc1-2`, the inhibition in assay [1] came to 95.7%; in assay [2], 4.8%; in assay [3], 3.5%. Further, the IC50 with DU-145 worked out at 5970 nM; with HCT-15, 1940 nM; in the assay with T47D it was 2720 nM; in assay [4] it was 5640 nM.

For the molecule `c1ccc(-c2cc(-c3ccccc3)c3c(n2)-c2ccccc2OC3)cc1`, the inhibition in assay [3] is 0%. The IC50 stood at 14200 nM in the assay on T47D and 6580 nM in assay [4].

Take `Oc1ccc(-c2cc(-c3ccccc3)nc3c2COc2ccccc2-3)cc1`: the inhibition in assay [1] is 94.1%; in assay [2], 16.1%; in assay [3] it was 2.1%. Further, the IC50 turned out to be 1560 nM with DU-145, 15100 nM with HCT-15, 1350 nM with T47D and 6350 nM in assay [4].
